The results in this text go back to patent US20250333418A1, “PURINE COMPOUNDS, COMPOSITIONS COMPRISING THEM AND USES THEREOF” (Novo Nordisk A/S, priority 2022, published 2025).

Test [1] addresses T1, human CB1 receptor (Homo sapiens, UniProt P21554).
T1 construct: expressed in transfected cells; host or cells: HEK293
Nature of the test: bioSensAll GAPL-Gi2 BRET biosensor assay in HEK293 cells transfected with hCB1; test compound added before EC75-80 of agonist CP55,940 (0.1 nM). The test is classed as cell-based. The following applies: vs CP55,940 0.1 nM (EC75-80), read-out: CB1 wt Gi2 IC50. A digest of the protocol: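 Test compounds at 12 doses up to 600 nM preceded a 0.1 nM CP55,940 challenge in hCB1/GAPL-Gi2 HEK293 cells. After overnight 37° C incubation, methoxy e-coelenterazine (2 µM final) was added and the 515/400 nm BRET ratio normalized to positive and negative controls.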
(BRET reads energy transfer from a luciferase to a nearby fluorophore.)

Test [2] addresses T1, human CB1 receptor. Nature of the test: bioSensAll β-arrestin2 plasma membrane translocation (+GRK2) BRET biosensor assay in HEK293 cells transfected with hCB1; test compound added before EC75-80 of agonist CP55,940 (100 nM). It is filed as cell-based. Particulars: βArrestin2 (+GRK2) BRET biosensor, vs CP55,940 100 nM (EC75-80), read-out: CB1 wt βarr2 IC50. A digest of the protocol:
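Antagonist mode: compound at 12 concentrations up to 600 nM, then 100 nM CP55,940 3–5 min later, on hCB1-transfected HEK293 cells carrying the β-arrestin2 plasma-membrane biosensor plus GRK2. After overnight 37 °C incubation, 515/400 nm BRET ratio measured with 2 µM methoxy e-CTZ and standardized against positive/negative controls.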

As usually defined, the IC50 is the concentration that gives 50% inhibition.

T1 sequence (P21554 whole entry): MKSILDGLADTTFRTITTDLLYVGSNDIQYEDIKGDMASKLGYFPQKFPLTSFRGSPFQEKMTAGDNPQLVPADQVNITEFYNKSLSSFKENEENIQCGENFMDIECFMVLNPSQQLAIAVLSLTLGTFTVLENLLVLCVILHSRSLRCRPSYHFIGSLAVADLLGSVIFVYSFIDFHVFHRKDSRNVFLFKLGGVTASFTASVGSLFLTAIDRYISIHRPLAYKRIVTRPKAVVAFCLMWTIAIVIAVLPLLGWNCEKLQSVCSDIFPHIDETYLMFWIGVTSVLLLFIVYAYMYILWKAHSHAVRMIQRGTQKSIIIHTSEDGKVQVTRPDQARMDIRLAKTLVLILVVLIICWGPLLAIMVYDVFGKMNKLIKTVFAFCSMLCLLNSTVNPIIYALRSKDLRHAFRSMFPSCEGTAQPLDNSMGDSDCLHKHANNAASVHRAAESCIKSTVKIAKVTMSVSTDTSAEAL

Consider `CN(CCO)c1nc(N2CCC(C)(C(N)=O)CC2)c2nc(-c3ncccc3F)n(-c3ccc(Cl)cc3)c2n1` [Compound 50, 1-[9-(4-chlorophenyl)-8-(3-fluoro-2-pyridyl)-2-[2-hydroxyethyl(methyl)amino]purin-6-yl]-4-methyl-piperidine-4-carboxamide], for which the concentration for half-maximal inhibition (IC50) amounted to 8.41 nM in test [1] and 47.8 nM in test [2].
The corresponding values for `CN(CCO)c1nc(N2CC(C)(C#N)C2)c2nc(-c3ccccc3Cl)n(-c3ccc(Cl)cc3)c2n1` [Compound 75] are 0.399 nM and 0.834 nM.
Take `Cc1cn(C)c(-c2nc3c(N4CCC(C)(C(N)=O)CC4)nc(N(C)CCO)nc3n2-c2ccc(Cl)cc2)n1` [Compound 57, 1-[9-(4-chlorophenyl)-8-(1,4-dimethylimidazol-2-yl)-2-[2-hydroxyethyl(methyl)amino]purin-6-yl]-4-methyl-piperidine-4-carboxamide]: the figures for the IC50 in test [1] and in test [2] were 41.2 nM and 121 nM, respectively.
For `CC(C)N1CCN(c2nc(OCC(C)(C)O)nc3c2nc(-c2ccccc2Cl)n3-c2ccc(Cl)cc2)CC1` [Compound 96], the figures for the IC50 in test [1] and in test [2] were 3.43 nM and 5.68 nM, respectively.
The matching figures for `CC1(C(N)=O)CCN(c2nc(-c3cnc[nH]3)nc3c2nc(-c2ccccc2Cl)n3-c2ccc(Cl)cc2)CC1` [Compound 45]: 5.85 nM and 39.9 nM.
The corresponding values for `CN(CCO)c1nc(N2CCC3(CCOC3)CC2)c2nc(-c3ccccc3Cl)n(-c3ccc(Cl)cc3)c2n1` [Compound 191] are 0.418 nM and 0.626 nM.
As for `CC1(C(N)=O)CCN(c2nc(N3CCC[C@H]3CO)nc3c2nc(-c2cccc(C#N)c2)n3-c2ccc(Cl)cc2)CC1` [Compound 37, 1-[9-(4-chlorophenyl)-8-(3-cyanophenyl)-2-[(2S)-2-(hydroxymethyl)pyrrolidin-1-yl]purin-6-yl]-4-methyl-piperidine-4-carboxamide], the IC50 turned out to be 7.39 nM in test [1] and 60.5 nM in test [2].
The matching figures for `CC1(C(N)=O)CCN(c2nc(N3C[C@H]4C[C@H]4C3)nc3c2nc(-c2ccccc2Cl)n3-c2ccc(Cl)cc2)CC1` [Compound 15, 1-[2-[(1R,5S)-3-azabicyclo[3.1.0]hexan-3-yl]-8-(2-chlorophenyl)-9-(4-chlorophenyl)purin-6-yl]-4-methyl-piperidine-4-carboxamide]: 1.29 nM and 8.03 nM.
The matching figures for `CN(CCO)c1nc(NC2CCS(=O)(=O)CC2)c2nc(-c3ccccc3Cl)n(-c3ccc(Cl)cc3)c2n1` [Compound 167]: 0.421 nM and 4.39 nM.
The corresponding values for `CC(C)(O)COc1nc(N2CCS(=O)(=O)CC2)c2nc(-c3ccccc3Cl)n(-c3ccc(Cl)cc3)c2n1` [Compound 209] are 1.34 nM and 14.7 nM.
Turning to `CC(=O)NCCOc1nc(N2CCC(C(F)(F)F)CC2)c2nc(-c3ccccc3Cl)n(-c3ccc(Cl)cc3)c2n1` [Compound 53, N-[2-[8-(2-chlorophenyl)-9-(4-chlorophenyl)-6-[4-(trifluoromethyl)-1-piperidyl]purin-2-yl]oxyethyl]acetamide], the IC50 worked out at 0.966 nM in test [1] and 13.1 nM in test [2].
`Cc1ncccc1-c1nc2c(N3CCC(C)(C(N)=O)CC3)nc(OCC(C)(C)O)nc2n1-c1ccc(Cl)cc1` [Compound 104, 1-[9-(4-chlorophenyl)-2-(2-hydroxy-2-methyl-propoxy)-8-(2-methyl-3-pyridyl)purin-6-yl]-4-methyl-piperidine-4-carboxamide]: the concentration for half-maximal inhibition (IC50) in test [1] was 48.8 nM; in test [2], above 5000 nM.
The corresponding values for `CCOC(=O)c1cn(-c2nc(N3CCC(C)(C(N)=O)CC3)c3nc(-c4ccccc4Cl)n(-c4ccc(Cl)cc4)c3n2)cn1` [Compound 69, ethyl 1-[6-(4-carbamoyl-4-methyl-1-piperidyl)-8-(2-chlorophenyl)-9-(4-chlorophenyl)purin-2-yl]imidazole-4-carboxylate] are 41.9 nM and 117 nM.
As to `CC(CO)Oc1nc(N2CCC(C)(C(N)=O)CC2)c2nc(-c3ccccc3Cl)n(-c3ccc(Cl)cc3)c2n1` (single isomer, unassigned) [Compound 7, 1-[8-(2-chlorophenyl)-9-(4-chlorophenyl)-2-(2-hydroxy-1-methyl-ethoxy)purin-6-yl]-4-methyl-piperidine-4-carboxamide], the figures for the half-maximal inhibitory concentration (IC50) in test [1] and in test [2] were 0.417 nM and 3.45 nM, respectively.
As for `CC1(C(N)=O)CCN(c2nc(N3CC[C@@H](O)C3)nc3c2nc(-c2ccc(C#N)nc2)n3-c2ccc(Cl)cc2)CC1` [Compound 131, 1-[9-(4-chlorophenyl)-8-(6-cyano-3-pyridyl)-2-[(3R)-3-hydroxypyrrolidin-1-yl]purin-6-yl]-4-methyl-piperidine-4-carboxamide], the 50% inhibitory concentration (IC50) in test [1] was found to be 0.713 nM; in test [2], 2.95 nM.
The matching figures for `COC(=O)N1CCN(c2nc(OCC(C)(C)O)nc3c2nc(-c2ccccc2Cl)n3-c2ccc(Cl)cc2)CC1` [Compound 224]: 1.27 nM and 7.99 nM.
The matching figures for `CN(CCO)C(=O)C1CN(c2nc(N(C)CCO)nc3c2nc(-c2ccccc2Cl)n3-c2ccc(Cl)cc2)C1` [Compound 187]: 3.97 nM and 40.4 nM.
The matching figures for `CN(CC(C)(C)O)c1nc(N2CCC(C)(C(N)=O)CC2)c2nc(-c3ccc(C#N)nc3)n(-c3ccc(Cl)cc3)c2n1` [Compound 110, 1-[9-(4-chlorophenyl)-8-(6-cyano-3-pyridyl)-2-[(2-hydroxy-2-methyl-propyl)-methyl-amino]purin-6-yl]-4-methyl-piperidine-4-carboxamide]: 6.33 nM and 13 nM.
On to `CC(=O)N1CCN(c2nc(OCC(C)(C)O)nc3c2nc(-c2ccccc2Cl)n3-c2ccc(Cl)cc2)CC1` [Compound 222], for which the values for the IC50 in test [1] and in test [2] were 1.56 nM and 7.91 nM, respectively.
The corresponding values for `CN(CC(C)(C)O)c1nc(N2CCC(C)(C(N)=O)CC2)c2nc(-c3ccccc3Cl)n(-c3ccc(Cl)cc3)c2n1` [Compound 40, 1-[8-(2-chlorophenyl)-9-(4-chlorophenyl)-2-[(2-hydroxy-2-methyl-propyl)-methyl-amino]purin-6-yl]-4-methyl-piperidine-4-carboxamide] are 0.971 nM and 15.3 nM.
The matching figures for `CC(C)(O)COc1nc(N2CCC(C)(C(N)=O)CC2)c2nc(-c3ccncc3Cl)n(-c3ccc(Cl)cc3)c2n1` [Compound 121, 1-[9-(4-chlorophenyl)-8-(3-chloro-4-pyridyl)-2-(2-hydroxy-2-methyl-propoxy)purin-6-yl]-4-methyl-piperidine-4-carboxamide]: 2.6 nM and 17 nM.
The corresponding values for `CC(C)(O)COc1nc(N2CCC(C)(C(N)=O)CC2)c2nc(-c3ccc(C#N)nc3)n(-c3ccc(Cl)cc3)c2n1` [Compound 109, 1-[9-(4-chlorophenyl)-8-(6-cyano-3-pyridyl)-2-(2-hydroxy-2-methyl-propoxy)purin-6-yl]-4-methyl-piperidine-4-carboxamide] are 13.2 nM and 61.5 nM.
Consider `CC1(C(N)=O)CCN(c2nc(N3C[C@H]4CCC[C@H]4C3)nc3c2nc(-c2ccccc2Cl)n3-c2ccc(Cl)cc2)CC1` [Compound 14, 1-[2-[(3aS,6aR)-3,3a,4,5,6,6a-hexahydro-1H-cyclopenta[c]pyrrol-2-yl]-8-(2-chlorophenyl)-9-(4-chlorophenyl)purin-6-yl]-4-methyl-piperidine-4-carboxamide], for which the results for the IC50 in test [1] and in test [2] were 6.5 nM and 34.5 nM, respectively.
